Two compounds from patent US20060013866A1, “Transdermal drug delivery formulations with optimal amounts of vasodilators therein” (priority 2004, published 2006) can be followed below.

Holding throughout (type): in vivo
Series [1] in a line: Maximal blood flow stimulated by vasodilator, laser Doppler perfusion imager. An excerpt: The present invention also relates to the methods needed to obtain the optimal transdermal delivery of drugs as a function of enhanced delivery resulting from the presence of vasodilator chemicals relates to the topical application of therapeutic or diagnostic agents for the systemic or localized distribution of therapeutic or diagnostic agents for the purpose of treating or detecting diseases and medical conditions. The topically applied agents may be administered at different locations on the human body to achieve access to the circulatory system. The inclusion of chemical vasodilator facilitates the transportation of the therapeutic and diagnostic agents. Chemical vasodilators act through a mechanism-specific basis resulting in a stimulation or inhibition of the uptake of the therapeutic or diagnostic agents. […] Transdermal delivery of the drug molecule as a function of the vasodilator is evaluated in a living suitable animal model or human test subject, topically applying the test formulations, which contain varying amounts of vasodilator. […] Effective transdermal drug delivery is measured by determining the amount of drug present in the blood plasma as a function of time following the single application. […]
Maximal blood flow stimulated by the vasodilator tolazoline was measured using a laser Doppler perfusion imager.

Series [2] is described as follows: Topical ibuprofen vehicle with tocopherol nicotinate applied to rabbits, ibuprofen in plasma over three hours. The method, then:
Test formulations containing 15% ibuprofen-sodium salt, 5% oleic acid, 10% menthol, 5% propylene glycol, 10% dimethylacetamide, 1% decylmethylsulfoxide, 1% u-care, varying amounts of tocopherol nicotinate in the range of 0-1%, and 52-53% deionized water were each blended in a beaker with a mechanical mixer and heated to 40° C. for 30 minutes until clear, then cooled to room temperature.
150 mg of sodium salt-ibuprofen was formulated with a 1-gram dose of the above lipid-based vehicle formulations containing the increasing amounts of the vasodilator tocopherol nicotinate. The Ibuprofen vehicle was topically applied to rabbits and blood samples were taken over a three-hour period. Plasma was prepared and analyzed for the amount of ibuprofen present in the blood. The data represents the integrated value of ibuprofen concentration in the blood for the three hour time period for each concentration of tocopherol nicotinate.

A short description of series [3]: Topical ibuprofen vehicle with papaverine applied to rabbits, ibuprofen in plasma over three hours. Particulars: 150 mg sodium salt-ibuprofen. Here is the method: Test formulations containing 15% ibuprofen-sodium salt, 5% oleic acid, 10% menthol, 5% propylene glycol, 10% dimethylacetamide, 1% decylmethylsulfoxide, 1% u-care, varying amounts of papaverine ranging from 0-1%, and 52-53% deionized water were each blended in a beaker with a mechanical mixer and heated to 40° C. for 30 minutes until clear, then cooled to room temperature.
150 mg of sodium salt-ibuprofen was formulated with the above lipid-based vehicle formulatiosn containing increasing amounts of the vasodilator papaverine. The Ibuprofen vehicle was topically applied to rabbits and blood samples were taken over a three-hour period. Plasma was prepared and analyzed for the amount of ibuprofen present in the blood. The data represents the integrated value of ibuprofen concentration in the blood for the three hour time period for each concentration of papaverine.

Series [4] can be described thus: Topical ibuprofen vehicle with tolazoline applied to rabbits, ibuprofen in plasma over three hours. Particulars: 150 mg sodium salt-ibuprofen. Here is the method: Test formulations containing 15% ibuprofen- sodium salt, 5% oleic acid, 10% menthol, 5% propylene glycol, 10% dimethylacetamide, 1% decylmethylsulfoxide, 1% u-care, varying amounts of tolazoline ranging from 0-0.1%, and 52.9-53% deionized water were each blended in a beaker with a mechanical mixer and heated to 40° C. for 30 minutes until clear, then cooled to room temperature.
150 mg of sodium salt-ibuprofen was formulated with the above lipid-based vehicle formulatiosn containing increasing amounts of the vasodilator tolazoline. The Ibuprofen vehicle was topically applied to rabbits and blood samples were taken over a three-hour period. Plasma was prepared and analyzed for the amount of ibuprofen present in the blood. The data represents the integrated value of ibuprofen concentration in the blood for the three hour time period for each concentration of tolazoline.

SMILES strings stand for the structures.

As to `c1ccc(CC2=NCCN2)cc1` [tolazoline], the “concentration of tolazoline at which the maximum blood flow was achieved” value in series [1] was 0.5%.
`CC(C)Cc1ccc(C(C)C(=O)O)cc1` (centres unmarked) [Ibuprofen, ibuprofen]: the “integrated value of ibuprofen concentration in the blood (0-3 hr)” value (“integrated value” for short) in series [2] (150 mg sodium salt-ibuprofen in 1-gram dose, Control (no tocopherol nicotinate)) is 1030 ng·h/mL; in series [2] (150 mg sodium salt-ibuprofen, tocopherol nicotinate 0.00010%), 3980 ng·h/mL; in series [2] (150 mg sodium salt-ibuprofen, tocopherol nicotinate 0.00025%), 9480 ng·h/mL; in series [2] (150 mg sodium salt-ibuprofen, tocopherol nicotinate 0.00050%), 3120 ng·h/mL; in series [2] (150 mg sodium salt-ibuprofen, tocopherol nicotinate 0.0010%), 5080 ng·h/mL; in series [2] (150 mg sodium salt-ibuprofen, tocopherol nicotinate 0.0100%), 5840 ng·h/mL. Further, the “integrated value” value in series [2] (150 mg sodium salt-ibuprofen, tocopherol nicotinate 0.100%) stood at 4300 ng·h/mL; in series [2] (150 mg sodium salt-ibuprofen, tocopherol nicotinate 1.000%), 4400 ng·h/mL; in series [3] (Control (no papaverine)), 1030 ng·h/mL; in series [3] (papaverine 0.00010%) it was 5120 ng·h/mL; in series [3] (papaverine 0.00025%), 4470 ng·h/mL; in series [3] (papaverine 0.00050%) it was 8370 ng·h/mL. The “integrated value” value is 7620 ng·h/mL in series [3] (papaverine 0.0010%); 5720 ng·h/mL in series [3] (papaverine 0.0100%); 4230 ng·h/mL in series [3] (papaverine 0.100%); 6160 ng·h/mL in series [3] (papaverine 1.000%); 1030 ng·h/mL in series [4] (Control (no tolazoline)); 3900 ng·h/mL in series [4] (tolazoline 0.0010%). Besides, the “integrated value” value is 5240 ng·h/mL in series [4] (tolazoline 0.0050%), 5660 ng·h/mL in series [4] (tolazoline 0.0100%), 3530 ng·h/mL in series [4] (tolazoline 0.0500%) and 4530 ng·h/mL in series [4] (tolazoline 0.100%).
